Twelve compounds from ChEMBL document CHEMBL1144549, “Preparation of secolycorines against acetylcholinesterase” (Bioorg Med Chem, 2007) can be followed below.

Where only a bound is given, the exact number is not on record here.

The target of this experiment is Acetylcholinesterase (Electrophorus electricus, UniProt O42275). Put plainly: Inhibition of eel AChE.
Sequence of Acetylcholinesterase (O42275 whole entry): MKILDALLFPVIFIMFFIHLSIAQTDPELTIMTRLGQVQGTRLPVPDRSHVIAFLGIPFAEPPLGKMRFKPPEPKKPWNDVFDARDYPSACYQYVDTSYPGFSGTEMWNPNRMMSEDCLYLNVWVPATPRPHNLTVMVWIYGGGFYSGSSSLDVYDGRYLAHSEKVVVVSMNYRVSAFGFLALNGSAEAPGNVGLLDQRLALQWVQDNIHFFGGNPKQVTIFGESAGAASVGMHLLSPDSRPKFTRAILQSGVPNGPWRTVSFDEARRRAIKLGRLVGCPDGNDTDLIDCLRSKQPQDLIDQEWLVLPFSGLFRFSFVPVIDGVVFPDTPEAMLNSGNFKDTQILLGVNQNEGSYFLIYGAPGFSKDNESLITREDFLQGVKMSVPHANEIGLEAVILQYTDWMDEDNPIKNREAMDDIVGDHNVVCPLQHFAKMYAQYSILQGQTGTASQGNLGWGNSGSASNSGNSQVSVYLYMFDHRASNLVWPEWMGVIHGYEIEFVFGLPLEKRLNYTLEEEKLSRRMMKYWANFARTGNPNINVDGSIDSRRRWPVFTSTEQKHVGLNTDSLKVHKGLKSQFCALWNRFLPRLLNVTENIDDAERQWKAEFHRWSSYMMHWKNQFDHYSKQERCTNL
Turning to `CCc1cccc2c1N(C)Cc1cc3c(cc1-2)OCO3`, half-maximal inhibition (IC50) required 3 µM. Then `CCCN1Cc2cc3c(cc2-c2cccc(CC)c21)OCO3`, with 9.98 µM. In the case of `C=Cc1cccc2c1N(CC)Cc1cc3c(cc1-2)OCO3` it was 8.35 µM; in that of `C=Cc1cccc2c1N(CCCCC)Cc1cc3c(cc1-2)OCO3`, below 5 µM; in that of `CCCCCN1Cc2cc3c(cc2-c2cccc(CC)c21)OCO3`, below 5 µM. Take `CCc1cccc2c1N(CC)Cc1cc3c(cc1-2)OCO3`: the IC50 is 8.82 µM. The compound `C=Cc1cccc2c1N(CCC)Cc1cc3c(cc1-2)OCO3` displayed an IC50 of 10.6 µM. The IC50 values of the last two compounds are within 1.5-fold of each other. In the case of `CCCCN1Cc2cc3c(cc2-c2cccc(CC)c21)OCO3` it was 5.44 µM; in that of `C=Cc1cccc2c1N(C)Cc1cc3c(cc1-2)OCO3`, 2.89 µM; in that of `CCCCCCN1Cc2cc3c(cc2-c2cccc(CC)c21)OCO3`, below 5 µM. In turn, `C=Cc1cccc2c1N(CCCCCC)Cc1cc3c(cc1-2)OCO3` gave an IC50 below 5 µM. In turn, `C=Cc1cccc2c1N(CCCC)Cc1cc3c(cc1-2)OCO3` showed an IC50 of 2.66 µM.

As usually defined, the IC50 is the concentration at which inhibition is half-maximal. Lower therefore signals inhibition by little substance.
